# Measurements from patent US4670038A, “Cyclotriphosphazatriene-derivatives as soil urease activity inhibitors” (Tennessee Valley Authority, priority 1986, dated 1987).
# “Also recorded” adds a separate entry of the source. Where two headings read alike, the source gives them in different places.
# Columns and labels:
# soil urease [1] = experiment: Urea hydrolysis in bands of urea plus inhibitor in Hastings silt loam soil (banded system); type: biochemical; conditions: for Unhydrolyzed Urea, % Banded 3-Day / Unhydrolyzed Urea, % Banded 6-Day: Table VI, 41 mg inhibitor/band; for Unhydrolyzed Urea, % 3 Days / Unhydrolyzed Urea, % Banded 3-Day: 3 days; for Unhydrolyzed Urea, % 6 Days / Unhydrolyzed Urea, % Banded 6-Day: 6 days
# soil urease [2] = experiment: Urea remaining unhydrolyzed in Hastings silt loam soil, well-mixed system; type: biochemical; conditions: for Soil urease inhibitory properties in words, well-mixed system: 1-, 3- and 6-day tests, compared with phenyl phosphorodiamidate; for Unhydrolyzed Urea, % Well-Mixed 1-Day / Unhydrolyzed Urea, % Well-Mixed 3-Day / Unhydrolyzed Urea, % Well-Mixed 6-Day: Table V, 41 mg inhibitor, 410 mg urea, 100 g soil, three replications, 25° C.; for Unhydrolyzed Urea, % Well-Mixed 3-Day: 3 days; for Unhydrolyzed Urea, % Well-Mixed 6-Day: 6 days; for Time until percentage urease inhibition reaches 0% (FIG. 1): FIG. 1, plotted and extrapolated from data of Table V, conventional test
# soil urease [3] = experiment: Soil urease inhibition in Crowley silt loam soil, extended time evaluation system (urea added at selected intervals); type: biochemical; conditions: for Soil Urease Inhibition, 0 Days / Soil Urease Inhibition, 3 Days / Soil Urease Inhibition, 7 Days / Soil Urease Inhibition, 14 Days / Soil Urease Inhibition, 21 Days: 7 micromoles compound per 120 g Crowley silt loam, reincubated 16 hours; for Soil Urease Inhibition, 0 Days: urea added after 0 days; for Soil Urease Inhibition, 3 Days: urea added after 3 days; for Soil Urease Inhibition, 7 Days: urea added after 7 days; for Soil Urease Inhibition, 14 Days: urea added after 14 days; for Soil Urease Inhibition, 21 Days: urea added after 21 days
# [4] = cited from earlier work
# [5] = soil, 168 h; cited from earlier work
# [6] = Table II, equimolar basis, 0.25 millimoles inhibitor/band, 410 mg urea/band, three replications, Hastings silt loam, 25° C.
# [7] = Table IV, inhibitor 10 percent of urea (wt/wt), 41 mg/band, two replications, Hastings silt loam
# [8] = Hastings silt loam, banded system, 3-day and 6-day tests
# [9] = 410 mg urea/band, three replications, Hastings silt loam, 25° C.
# [10] = Table III, inhibitor 10 percent of urea (wt/wt), 41 mg/band, four replications, Hastings silt loam, 25° C.
SMILES,"Unhydrolyzed Urea, % 3 Days (soil urease [1]; [6]) [%]","Unhydrolyzed Urea, % 6 Days (soil urease [1]; [6]) [%]","Unhydrolyzed Urea, % 3 Days (soil urease [1]; [7]) [%]","Unhydrolyzed Urea, % 6 Days (soil urease [1]; [7]) [%]","Soil urease inhibition in words, banded soil tests (soil urease [1]; [8])","Unhydrolyzed Urea, % Banded 3-Day (soil urease [1]; [9]) [%]","Unhydrolyzed Urea, % Banded 6-Day (soil urease [1]; [9]) [%]","Soil urease inhibitory properties in words, well-mixed system (soil urease [2])","Unhydrolyzed Urea, % Well-Mixed 1-Day (soil urease [2]) [%]","Unhydrolyzed Urea, % Well-Mixed 3-Day (soil urease [2]) [%]","Unhydrolyzed Urea, % Well-Mixed 6-Day (soil urease [2]) [%]","Soil Urease Inhibition, 0 Days (soil urease [3]; 30° C.) [%]","Soil Urease Inhibition, 3 Days (soil urease [3]; 30° C.) [%]","Soil Urease Inhibition, 7 Days (soil urease [3]; 30° C.) [%]","Soil Urease Inhibition, 14 Days (soil urease [3]; 30° C.) [%]","Soil Urease Inhibition, 21 Days (soil urease [3]; 30° C.) [%]",further results
"CC(=O)NO [CH3 C(NOH)(OH), Acetohydroxamic acid, reference compound]",26.2,6.7,,,,,,,,,,,,,,,
"NC(=O)NO [CO(NH2)(NHOH), Hydroxyurea, reference compound]",20.3,0.2,,,,,,,,,,,,,,,
"ClP1(Oc2ccccc2)=NP(Cl)(Oc2ccccc2)=NP(Cl)(Oc2ccccc2)=N1 (centres unmarked) [P3 N3 (Cl)3 (OC6 H5)3, 2,4,6-triphenoxy-2,4,6-trichlorocyclotriphosphazatriene]",,,,,,,,,,,,,,,,,"Soil urease inhibition in words, banded soil tests (soil urease [1]): not effective urease inhibitors"
"CNP1(NC)=NP(N)(N)=NP(NC)(NC)=N1 [P3 N3 (NH2)2 (NHCH3)4, 2,2,4,4,-tetra(monomethylamino)-6,6-diaminocyclotriphosphazatriene]",,,0.5,0.0,,,,,,,,,,,,,
"CN(C)P1(N(C)C)=NP(N)(N)=NP(N(C)C)(N(C)C)=N1 [P3 N3 (NH2)2 [N(CH3)2]4, 2,2,4,4,-tetra(dimethylamino)-6,6-diaminocyclotriphosphazatriene]",,,,,do not exhibit urease inhibition,,,,,,,,,,,,
"NP1(Oc2ccccc2)=NP(N)(Oc2ccccc2)=NP(N)(Oc2ccccc2)=N1 (centres unmarked) [P3 N3 (NH2)3 (OC6 H5)3, 2,4,6-triphenoxy-2,4,6-triaminocyclotriphosphazatriene]",,,,,,21,0,less than that of phenyl phosphorodiamidate,82,37,0,22,79,74,84,82,"Urease inhibition sustained during the period from 7 to 21 days (FIG. 2) (soil urease [3]; Crowley silt loam, 30° C., period from 7 to 21 days): greater than 80%"
"NP1(N)=NP(N)(Oc2ccccc2)=NP(N)(Oc2ccccc2)=N1 (centres unmarked) [P3 N3 (NH2)4 (OC6 H5)2, 2,4-diphenoxy-2,4,6,6-tetraaminocyclotriphosphazatriene]",,,,,inhibit soil urease during the 3-day and 6-day tests,60,4,comparable to phenyl phosphorodiamidate,94,74,36,75,94,71,69,65,Time until percentage urease inhibition reaches 0% (FIG. 1) (soil urease [2]): about 10 days
"NP1(N)=NP(N)(N)=NP(N)(Oc2ccccc2)=N1 (centres unmarked) [P3 N3 (NH2)5 (OC6 H5), 2-phenoxy-2,4,4,6,6-pentaaminocyclotriphosphazatriene]",,,,,inhibit soil urease during the 3-day and 6-day tests,61,7,comparable to phenyl phosphorodiamidate,96,82,44,95,75,49,42,44,Time until percentage urease inhibition reaches 0% (FIG. 1) (soil urease [2]): about 10 days
"NP1(N)=NP(N)(N)=NP(N)(N)=N1 [P3 N3 (NH2)6, 2,2,4,4,6,6-hexaaminocyclotriphosphazatriene]",48.1,16.8,53.8,9.5,comparable to PPDA as an inhibitor of soil urease activity; also recorded: inhibit soil urease during the 3-day and 6-day tests,64,8,less than that of phenyl phosphorodiamidate,86,57,9,46,23,20,4,4,"Unhydrolyzed Urea, % 3 Days (soil urease [1]; [10]): 49.7%; Unhydrolyzed Urea, % 6 Days (soil urease [1]; [10]): 9.5%; Soil Urease Inhibition, 21 Days (soil urease [3]; 30° C., listed as hexaaminocyclotriphosphazatriene): about 4%; Urease inhibition compared with reference standard PPDA, in words (FIG. 2) (soil urease [3]; time independent modified soil evaluation procedure, 21-day test period): as good or better than PPDA for the time period from 14 to 21 days; Time of hydrolysis ([4]; pH 8, 15° C.): about 300 hours; Time of hydrolysis ([4]; pH 8, 30° C.): ~100 h; Percent hydrolyzed in 7 days [5]: 6-13%"
"CNP1(NC)=NP(NC)(NC)=NP(NC)(NC)=N1 [P3 N3 (NHCH3)6, 2,2,4,4,6,6-hexa(monomethylamino)cyclotriphosphazatriene]",,,0.0,0.0,do not exhibit urease inhibition,,,,,,,,,,,,
"CN(C)P1(N(C)C)=NP(N(C)C)(N(C)C)=NP(N(C)C)(N(C)C)=N1 [P3 N3 [N(CH3)2]6, 2,2,4,4,6,6-hexa(dimethylamino)cyclotriphosphazatriene]",,,0.0,0.0,do not exhibit urease inhibition,,,,,,,,,,,,
"NP(N)(N)=O [PO(NH2)3, Phosphoryltriamide, reference compound]",43.4,1.8,54.2,2.6,,,,,,,,29,4,12,0,0,"Unhydrolyzed Urea, % 3 Days (soil urease [1]; [10]): 48.1%; Unhydrolyzed Urea, % 6 Days (soil urease [1]; [10]): 1.1%"
